The subject of data set [1] is HCT116 cells and MKN45 cells. Nature of the data set: Test C: measurement of cell proliferation by 14C-thymidine pulse. The format is cell-based. The conditions noted are these: 14C-thymidine incorporation, 96 h of treatment; cell line not stated (HCT116 and MKN45 in method). The protocol: C) Test C: Measurement of cell proliferation by ^14C-thymidine pulse
The cells are seeded into Cytostar 96-well plates in 180 μl for 4 hours at 37° C. and 5% CO2: HCT116 cells at a rate of 2500 cells per well in DMEM medium+10% foetal calf serum+1% L-glutamine and MKN45 cells at a rate of 7500 cells per well in RPMI medium+10% foetal calf serum+1% L-glutamine. After these 4 hours of incubation, the products are added in 10 μl as a 20-fold concentrated solution according to the dilution method mentioned for the ELISA. The products are tested at 10 concentrations in duplicate from 10 000 nM to 0.3 nM with an increment of 3.
After treatment for 72 h, add 10 μl of ^14C-thymidine at 10 μCi/ml to obtain 0.1 μCi per well. The ^14C-thymidine incorporation is measured on a Micro-Beta machine (Perkin-Elmer) after 24 hours of pulse and 96 h of treatment.
All the stages of the assay are automated on BIOMEK 2000 or TECAN stations.

Data set [2] has as its target T1, MET (Homo sapiens, UniProt P08581). Nature of the data set: Test B: inhibition of the autophosphorylation of MET, ELISA technique (pppY1230, 1234, 1235) in MKN45 cells. The format is cell-based. More on the design: endogenous in cells; host or cells: MKN45 cells. To be noted: 1 h treatment, phosphoMET ELISA. The protocol:
B) Test B: Inhibition of the Autophosphorylation of MET; ELISA Technique (pppY1230, 1234, 1235)
a) Cell lysates: Seed MKN45 cells into 96-well plates (Cell coat BD polylysine) at 20 000 cells/well in 200 μl in RPMI medium+10% FCS+1% L-glutamine. Leave to adhere for 24 hours in an incubator.
The cells are treated the day after seeding with the products at 6 concentrations in duplicate for 1 h. At least 3 control wells are treated with the same final amount of DMSO.
Product dilution: Stock at 10 mM in pure DMSO—range from 10 mM to 30 μM with an increment of 3 in pure DMSO—intermediate 1/50 dilutions in culture medium and then removal of 10 μl added directly to the cells (200 μl): final range from 10 000 to 30 nM.
At the end of the incubation, carefully remove the supernatant and rinse with 200 μl of PBS. Next, place 100 μl of lysis buffer directly in the wells on ice and incubate at 4° C. for 30 minutes. Lysis buffer: 10 mM Tris HCl, pH 7.4, 100 mM NaCl, 1 mM EDTA, 1 mM EGTA, 1% Triton X-100, 10% glycerol, 0.1% SDS, 0.5% deoxycholate, 20 mM NaF, 2 mM Na3VO4, 1 mM PMSF and cocktail of antiproteases.
The 100 μl of lysates are transferred into a V-bottomed polypropylene plate and the ELISA is performed immediately, or the plate is frozen at −80° C.
b) PhosphoMET ELISA BioSource Kit KH00281
Into each well of the kit plate, add 70 μl of kit dilution buffer+30 μl of cell lysate or 30 μl of lysis buffer for the blanks. Incubate for 2 h with gentle agitation at ambient temperature.
Rinse the wells 4 times with 400 μl of kit washing buffer. Incubate with 100 μl of anti-phospho MET antibody for 1 hour at ambient temperature.
Rinse the wells 4 times with 400 μl of kit washing buffer. Incubate with 100 μl of anti-rabbit HRP antibody for 30 minutes at ambient temperature (except for the wells of chromogen alone).
Rinse the wells 4 times with 400 μl of kit washing buffer. Introduce 100 μl of chromogen and incubate for 30 minutes in the dark at ambient temperature.
Stop the reaction with 100 μl of stop solution. Read without delay at […], 0.1 second on Wallac Victor plate reader.
Target sequence in this assay (P08581 25-1390): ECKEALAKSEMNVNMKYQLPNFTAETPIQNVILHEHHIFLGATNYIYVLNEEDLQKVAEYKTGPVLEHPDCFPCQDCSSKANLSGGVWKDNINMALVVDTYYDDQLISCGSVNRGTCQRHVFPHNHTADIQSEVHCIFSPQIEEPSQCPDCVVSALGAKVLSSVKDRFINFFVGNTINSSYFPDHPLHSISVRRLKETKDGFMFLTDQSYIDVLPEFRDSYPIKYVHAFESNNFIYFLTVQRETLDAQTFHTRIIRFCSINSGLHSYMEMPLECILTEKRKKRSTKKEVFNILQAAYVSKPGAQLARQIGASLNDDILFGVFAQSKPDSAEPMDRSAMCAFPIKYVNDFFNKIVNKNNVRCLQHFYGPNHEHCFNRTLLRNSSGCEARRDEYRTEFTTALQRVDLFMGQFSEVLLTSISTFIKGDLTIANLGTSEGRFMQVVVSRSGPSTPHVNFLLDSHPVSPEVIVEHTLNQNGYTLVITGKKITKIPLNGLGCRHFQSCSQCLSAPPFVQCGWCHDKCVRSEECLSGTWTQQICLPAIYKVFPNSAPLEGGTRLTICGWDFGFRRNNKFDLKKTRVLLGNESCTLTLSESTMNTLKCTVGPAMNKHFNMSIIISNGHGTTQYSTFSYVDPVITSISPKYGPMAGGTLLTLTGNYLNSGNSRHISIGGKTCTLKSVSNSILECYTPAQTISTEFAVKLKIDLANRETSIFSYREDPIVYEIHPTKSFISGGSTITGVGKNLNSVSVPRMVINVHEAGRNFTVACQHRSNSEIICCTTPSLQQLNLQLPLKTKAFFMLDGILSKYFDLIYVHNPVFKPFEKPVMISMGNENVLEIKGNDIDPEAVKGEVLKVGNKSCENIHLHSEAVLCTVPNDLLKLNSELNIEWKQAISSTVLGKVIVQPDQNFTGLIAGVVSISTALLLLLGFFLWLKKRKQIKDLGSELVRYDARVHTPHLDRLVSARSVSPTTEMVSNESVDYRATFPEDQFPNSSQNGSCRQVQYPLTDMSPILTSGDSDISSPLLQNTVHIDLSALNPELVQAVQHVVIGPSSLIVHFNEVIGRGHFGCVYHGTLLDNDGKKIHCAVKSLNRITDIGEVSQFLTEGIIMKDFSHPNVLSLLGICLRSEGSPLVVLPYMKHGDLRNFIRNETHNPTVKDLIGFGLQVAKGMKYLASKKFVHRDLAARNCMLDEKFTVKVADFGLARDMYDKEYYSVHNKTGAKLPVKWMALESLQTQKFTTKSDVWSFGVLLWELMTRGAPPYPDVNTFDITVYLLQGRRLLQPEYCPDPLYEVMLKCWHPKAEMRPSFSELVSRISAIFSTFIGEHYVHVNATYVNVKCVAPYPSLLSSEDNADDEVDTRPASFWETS

The target in data set [3] is T1, MET. Nature of the data set: Test A: HTRF MET assay in 96-well format. The data set is classed as biochemical. More on the design: The His-Tev-MET (956-1390) recombinant DNA in pFastBac (Invitrogen) is transfected into insect cells; His (N, cleaved yes); Tev cleavage site (N, cleaved yes); made in house; host or cells: SF21 insect cells (baculovirus, pFastBac). The conditions noted are these: 5 nM MET, 10 μM ATP. The protocol: I) Expression and Purification of MET, Cytoplasmic Domain
The His-Tev-MET (956-1390) recombinant DNA in pFastBac (Invitrogen) is transfected into insect cells and, after several viral amplification stages, the final baculovirus stock is tested for the expression of the protein of interest.
After infection for 72 h at 27° C. with the recombinant virus, the SF21 cell cultures are harvested by centrifugation and the cell pellets are stored at −80° C.
The cell pellets are resuspended in lysis buffer (buffer A [50 mM HEPES, pH 7.5, 250 mM NaCl, 10% glycerol, 1 mM TECP]; + cocktail of protease inhibitors, Roche Diagnostics, without EDTA, ref. 1873580), stirred at 4° C. until the mixture is homogeneous and then lysed mechanically using a “Dounce” type apparatus.
After centrifugation, the lysis supernatant is incubated for 2 h at 4° C. with nickel chelate resin (His-Trap 6 Fast Flow™, GE HealthCare). After washing with 20 volumes of buffer A, the suspension is packed into a column, and the proteins are eluted with a gradient of buffer B (buffer A+290 mM imidazole).
The fractions comprising the protein of interest for the purpose of electrophoretic analysis (SDS PAGE) are combined, concentrated by ultrafiltration (10 kDa cut-off) and injected onto an exclusion chromatography column (Superdex™ 200, GE HealthCare) equilibrated in buffer A.
After enzymatic cleavage of the histidine tag, the protein is reinjected onto a new IMAC nickel chelate chromatography column (His-Trap 6 Fast Flow™, GE HealthCare) equilibrated in buffer A. The fractions eluted with a gradient of buffer B and comprising the protein of interest after electrophoresis (SDS PAGE) are finally combined and conserved at −80° C.
For the production of autophosphorylated protein, the previous fractions are incubated for 1 h at ambient temperature after the addition of 2 mM ATP, 2 mM MgCl2, and 4 mM Na3VO4. After the reaction has been stopped with 5 mM of EDTA, the reaction mixture is injected onto a HiPrep desalifying column (GE HealthCare) preequilibrated in buffer A+4 mM Na3VO4, and the fractions comprising the protein of interest (SDS PAGE analysis) are combined and stored at −80° C. The degree of phosphorylation is verified by mass spectrometry (LC-MS) and by peptide mapping.
A) Test A: HTRF MET Assay in 96-Well Format
MET at a final concentration of 5 nM is incubated in a final volume of 50 μl of enzymatic reaction in the presence of the test molecule (for a final concentration range of from 0.17 nM to 10 μM, 3% DMSO final concentration) in 10 mM MOPS buffer, pH 7.4, 1 mM DTT, 0.01% Tween 20. The reaction is initiated with the substrate solution to obtain final concentrations of 1 μg/ml poly-(GAT), 10 μM ATP and 5 mM MgCl2. After incubation for 10 min at ambient temperature, the reaction is stopped with a 30 μl mix so as to obtain a final solution of 50 mM Hepes, pH 7.5, 500 mM potassium fluoride, 0.1% BSA and 133 mM EDTA in the presence of 80 ng of streptavidin 61SAXLB Cis-Bio Int. and 18 ng of anti-phosphotyrosine Mab PT66-Europium Cryptate per well. After incubation for 2 hours at ambient temperature, the reading is taken at 2 wavelengths, 620 nm and 665 nm, on a reader for the TRACE/HTRF technique and the % inhibition is calculated from the 665/620 ratios.
Target sequence in this assay (P08581 956-1390): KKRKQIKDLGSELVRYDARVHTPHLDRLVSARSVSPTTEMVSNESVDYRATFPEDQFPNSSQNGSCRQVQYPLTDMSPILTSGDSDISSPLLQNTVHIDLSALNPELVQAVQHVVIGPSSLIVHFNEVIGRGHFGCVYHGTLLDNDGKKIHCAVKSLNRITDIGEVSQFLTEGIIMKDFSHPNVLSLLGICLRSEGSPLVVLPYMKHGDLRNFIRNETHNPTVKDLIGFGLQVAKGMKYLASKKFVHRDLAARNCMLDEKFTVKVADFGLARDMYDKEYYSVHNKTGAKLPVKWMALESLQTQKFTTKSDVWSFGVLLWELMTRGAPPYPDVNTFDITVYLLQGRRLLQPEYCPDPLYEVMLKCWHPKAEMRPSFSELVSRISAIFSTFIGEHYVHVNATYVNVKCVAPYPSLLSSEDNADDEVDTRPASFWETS

pIC50: −log10 of the molar value.

What is called pIC50 is the IC50 on a negative log10 scale, so that one unit is a factor of ten. As usually defined, the melting point is the temperature, or range, at which the solid turns liquid. Compound `O=C(Nc1nc2ccc(S(=O)(=O)c3cnc4ncccn34)cc2s1)C1CC1` [Example 7, N-[6-(imidazo[1,2-a]pyrimidin-3-ylsulphonyl)-1,3-benzothiazol-2-yl]cyclopropanecarboxamide] yielded a melting point of 232 °C. Moreover, the pIC50 in data set [1] was > 6.00. Besides, the negative logarithm of the IC50 (pIC50) in data set [2] was > 7.00. In addition, the pIC50 in data set [3] was > 7.00.

For the compound `CC(=O)Nc1nc2ccc(Sc3cnc4ncccn34)cc2s1` [Example 3, N-[6-(imidazo[1,2-a]pyrimidin-3-ylsulphanyl)-1,3-benzothiazol-2-yl]acetamide], the melting point is > 260 °C. In addition, the pIC50 in data set [1] was > 6.00. Further, the pIC50 in data set [2] was > 7.00. In addition, in data set [3], the negative-log IC50 (pIC50) is > 7.00.

Regarding `Nc1nc2cc(F)c(Sc3cnc4ncccn34)cc2s1` [Example 19, 5-fluoro-6-(imidazo[1,2-a]pyrimidin-3-ylsulphanyl)-1,3-benzothiazol-2-amine], the melting point was > 264 °C. In data set [1], the pIC50 is > 6.00. The pIC50 in data set [2] was > 7.00. Also, the pIC50 in data set [3] is > 7.00.

Consider `O=C(CN1CCN(C2CC2)CC1)Nc1nc2ccc(Sc3cnc4ncccn34)cc2s1` [Example 16, 2-(4-cyclopropylpiperazin-1-yl)-N-[6-(imidazo[1,2-a]pyrimidin-3-ylsulphanyl)-1,3-benzothiazol-2-yl]acetamide], for which the melting point came to 224 °C. Moreover, the pIC50 in data set [1] was > 6.00. Moreover, the negative logarithm of the IC50 (pIC50) in data set [2] is > 7.00. In addition, the pIC50 in data set [3] was > 7.00.

`O=C(Nc1nc2ccc(Sc3cnc4ncccn34)cc2s1)C1CCOCC1` [Example 27, N-[6-(imidazo[1,2-a]pyrimidin-3-ylsulphanyl)-1,3-benzothiazol-2-yl]tetrahydro-2H-pyran-4-carboxamide]: the melting point amounted to 270 °C. Also, the negative-log IC50 (pIC50) in data set [1] was > 6.00. Besides, the pIC50 in data set [2] is > 6.30. For the same compound, the pIC50 in data set [3] is > 7.00.

Turning to `O=C(Nc1nc2cc(F)c(Sc3cnc4ncccn34)cc2s1)C1CC1` [Example 18, N-[5-fluoro-6-(imidazo[1,2-a]pyrimidin-3-ylsulphanyl)-1,3-benzothiazol-2-yl]cyclopropanecarboxamide], the melting point is > 260 °C. For the same compound, the pIC50 in data set [1] was > 6.00. In addition, the pIC50 in data set [2] was > 7.00. Further, the pIC50 in data set [3] is > 7.00.

The compound `COCCC(=O)Nc1nc2ccc(Sc3cnc4ncccn34)cc2s1` [Example 20, N-[6-(imidazo[1,2-a]pyrimidin-3-ylsulphanyl)-1,3-benzothiazol-2-yl]-3-methoxypropanamide] displayed a melting point of 225 °C. The pIC50 in data set [1] is > 6.00. In addition, the pIC50 in data set [2] is > 7.00. Besides, the pIC50 in data set [3] was > 7.00.

`CCN1CCN(CC(=O)Nc2nc3ccc(Sc4cnc5ncccn45)cc3s2)CC1` [Example 15, 2-(4-ethylpiperazin-1-yl)-N-[6-(imidazo[1,2-a]pyrimidin-3-ylsulphanyl)-1,3-benzothiazol-2-yl]acetamide] showed a melting point of 210 °C. Moreover, the pIC50 in data set [1] is > 6.00. Further, the pIC50 in data set [2] is > 7.00. For the same compound, the pIC50 in data set [3] is > 7.00.

As for `O=C(NCCN1CCCC1)Nc1nc2ccc(Sc3cnc4ncccn34)cc2s1` [Example 5, 1-[6-(imidazo[1,2-a]pyrimidin-3-ylsulphanyl)-1,3-benzothiazol-2-yl]-3-[2-(pyrrolidin-1-yl)ethyl]urea], the melting point is > 260 °C. In addition, the pIC50 in data set [1] was > 6.00. The pIC50 in data set [2] is > 7.00. Also, the pIC50 in data set [3] is > 7.00.

Regarding `O=C(Nc1nc2ccc(Sc3cnc4ncc(NCc5ccccc5)cn34)cc2s1)C1CC1` [Example 26, N-(6-{[6-(benzylamino)imidazo[1,2-a]pyrimidin-3-yl]sulphanyl}-1,3-benzothiazol-2-yl)cyclopropanecarboxamide], the melting point is > 260 °C. In addition, the pIC50 in data set [1] is > 6.00. Also, in data set [2], the pIC50 is > 7.00. In addition, the pIC50 in data set [3] is > 7.00.

For `Nc1ccn2c(Sc3ccc4nc(NC(=O)C5CC5)sc4c3)cnc2n1` [Example 22, N-{6-[(7-aminoimidazo[1,2-a]pyrimidin-3-yl)sulphanyl]-1,3-benzothiazol-2-yl}cyclopropanecarboxamide], the melting point was > 264 °C. The pIC50 in data set [1] is > 6.00. For the same compound, the pIC50 in data set [2] was > 7.00. Further, in data set [3], the pIC50 was > 7.00.

Regarding `Nc1nc2ccc(Sc3cnc4ncccn34)cc2s1` [Example 1, 6-(imidazo[1,2-a]pyrimidin-3-ylsulphanyl)-1,3-benzothiazol-2-amine], the melting point was > 260 °C. For the same compound, in data set [1], the pIC50 is > 6.00. Further, the negative logarithm of the IC50 (pIC50) in data set [2] is > 6.30. In addition, the pIC50 in data set [3] was > 7.00.

Source of the values: patent US20110263593A1, “NOVEL IMIDAZO[1,2-a]PYRIMIDINE DERIVATIVES, METHOD FOR THE PREPARATION THEREOF, USE THEREOF AS MEDICAMENTS, PHARMACEUTICAL COMPOSITIONS AND NOVEL USE, IN PARTICULAR AS MET INHIBITORS” (sanofi-aventis, priority 2008, published 2011).
